Data on 1 molecule can be found in patent US20240391876A1 (priority 2021, published 2024).

Data set [1] relates to SARS-COV-2. Nature of the data set: Cytopathic effect (CPE) assay against COVID-19 in Vero E6 cells, neutral red uptake. Format: cell-based. Conditions: 2 μg/mL quinacrine, 120 h p.i., at the 30% cytotoxic concentration. The procedure:
The cytoprotective effect of quinacrine was determined by the cell viability, which is measured by the uptake of neutral red dye at A540.
In this study, the antiviral efficiency of quinacrine was evaluated against COVID-19 in vitro. Antiviral activity was evaluated using a cytopathic effect (CPE) assay, which determines the ability of the compound to prevent viral CPE in African green monkey kidney cells, Vero E6. Four dilutions of the test compound were evaluated, and the effective antiviral concentration was determined by regression analysis. The cytotoxicity of the test compound was determined in parallel by the neutral red cell cytotoxicity assay, a common method used to detect cell viability or drug cytotoxicity. CPE was determined by the uptake of neutral red dye. Quinacrine protects more than 80% of the infected cells from the cytopathic effects caused by COVID-19 at 2 μg/mL concentration (FIG. 8). The tissue distribution of quinacrine was investigated in a previous study by treating mice daily by oral gavage with 30 mg/kg of quinacrine (35% v/v ethanol in distilled water) dissolved in 100 μL total volume for 28 days.
(In general: Cytopathic effects are the visible damage that an infection or toxin causes in cultured cells.)

Data set [2] concerns Influenza A/California/07/2009 (H1N1). The experiment in a line: Cytopathic effect (CPE) assay against Influenza A (H1N1), neutral red uptake. As to conditions: 2 μg/mL quinacrine; three days incubation. Format: cell-based, Influenza A virus.
For data set [3], the system named is RET G-quadruplex. Nature of the data set: Taq DNA polymerase stop assay. Format: biochemical. Conditions: quinacrine 0, 0.5, 1.0 and 2.0 μM. The procedure: DNA polymerase stop assay was performed at increasing concentrations of each drug. Lanes M represents the di-deoxy sequencing G-reactions with the same template, which serves as the marker to locate the exact stop site. Bands P, S, and F represent the position of the free primer, stop products by G-quadruplex structures, and full-length products, respectively, on the gel.
The G4-stabilizing effect of quinacrine was validated with the RET G4 as a model G4 using a DNA polymerase stop assay and CD spectroscopic studies. In this assay, the ligand mediated stabilization of the G-quadruplex structure arising from the DNA template prevents the progression of the Taq DNA polymerase during primer extension.

The subject of data set [4] is RET G4. Nature of the data set: CD spectroscopy and CD melting curve of RET G4. Format: binding. The procedure: In both graphs in FIG. 6, at the 260 wavelength lines in descending order are 20° C., 30° C., 40° C., 50° C., 60° C., 70° C., 80° C., and 90° C.
Quinacrine was further investigated as to whether it stabilizes the RET G4 structure using circular dichroism (CD) spectroscopic analysis. […] Next, the thermal stability of the G-quadruplex structure was examined by monitoring the CD melting curve in the absence and presence of quinacrine (5 equivalent) at increasing temperatures.

In data set [5] the test system is COVID-19 RNA G4s (SG1 and SG2). The experiment in a line: UV-Vis absorption spectra of quinacrine with RNA G4. Format: binding, SARS-COV-2. As to conditions: SG1, SG2 at different concentrations; 10 mM Tris-HCl pH 7.6, 5 mM NaCl, 50 mM KCl. From the text: UV-Vis spectroscopy is the most common and convenient technique to study the interaction between small molecules with nucleic acids, including RNA G4. Molecules containing aromatic chromophore groups interact with RNA G4, and the molecular interaction can be studied based on the changes in the absorption spectra. The hypochromic effect is a spectral property for RNA G4-drug interactions that are closely related to the G4 structure. […] With the addition of G4 RNA, the intensity at both 350 nm and 450 nm bands decreased, inducing the hypochromicity at these wavelengths (FIG. 7). This can be attributed to the decrease in the number of chromophores in solution due to the interaction of quinacrine with RNA G4.

In data set [6] the test system is COVID-19. The experiment in a line: Intravenous administration of quinacrine to a COVID-19 patient (Example 2). Format: in vivo, human. How it is done: The following example describes treatment strategies for COVID-19 involving an intravenous administration of Quinacrine to a patient.
A person wakes up one morning with a fever of 102.4° F. and a tightness in their chest. They are an essential hospital worker and so believes they may have contracted COVID-19. Therefore, they call their primary care physician to determine their next steps. The primary care physician decides that they should be brought in for testing since they are at a higher risk for complications because the patient has severe asthma. The person gets a nose swab for the test. The doctor mentions that they will call the patient with the results as soon as possible. For now, the person is told to self-isolate and to monitor any changes in symptoms, calling if things get progressively worse. Quickly the person's condition deteriorates, and they begin to experience difficulty breathing and pressure in their chest. The doctor admits them to the ICU of the hospital because they require supplemental oxygen to maintain their oxygen levels. Shortly after being admitted to the ICU, the result of their test comes back positive for COVID-19. The ICU doctor gives the patient an intravenous injection of 200 mg initially every 6 hours for 5 doses, followed by 100 mg 3 times a day for 6 days. Alternatively, 100 mg is administered via IV infusion 3 times a day for 5 to 7 days. […]

Data set [7] concerns COVID-19. Nature of the data set: Oral administration of quinacrine to a COVID-19 patient (Example 3). Format: in vivo, human. The procedure: The following example describes treatment strategies for COVID-19 involving an oral administration of Quinacrine.
Recently, a COVID-19 test for a person has come back positive. […] After a week at the hospital, the patient's symptoms show no signs of improvement. The doctors at the hospital prescribe to the patient an initial 200 mg dose orally every 6 hours for 5 doses, followed by 100 mg 3 times a day for 6 days. Alternatively, 100 mg is orally administered to the patient after meals 3 times a day for 5 to 7 days. After a week and a half of taking quinacrine daily, the patient's symptoms improve. […] The patient is released from the hospital and is told to stay in self-isolation for another week.

Data set [8] deals with COVID-19 and influenza. Nature of the data set: Oral administration of quinacrine for prevention of COVID-19 and influenza (Example 5). Conditions: 300 mg orally twice a day for a month. Format: in vivo, human. The procedure:
The following example describes prevention strategies for COVID-19 and influenza involving an oral administration of Quinacrine.
A person wants to prevent getting sick during the upcoming winter season. Therefore, they schedule an appointment with their primary care physician to discuss their options. At the appointment, the doctor recommends taking a 300 mg pill of quinacrine orally twice a day for the next month.

The conditions of data set [9]: mice; 30 mg/kg daily oral gavage; after 28 d of treatment; cited from earlier work.

Each structure is given as a SMILES string.

With `CCN(CC)CCCC(C)Nc1c2ccc(Cl)cc2nc2ccc(OC)cc12` (centres unmarked) [quinacrine], the “reduction of CPE due to SARS-COV-2 / protection of infected cells from cytopathic effects” value in data set [1] is “more than 80%”. Further, in data set [2], the “protection of infected cells from cytopathic effects caused by Influenza A (H1N1)” value is on record as “more than 80%”. Also, the “amount of arrested product (stop product by G-quadruplex)” value in data set [3] is “dose-dependent increase”. In data set [4] (in the presence of quinacrine), the “positive CD peak at 262 nm (parallel G-quadruplex structure)” value is “not affected”. The “melting temperature (Tm) of the RET G4 structure” value in data set [4] (quinacrine 5 equivalent, increasing temperatures) is “significantly increased”. Further, in data set [5], the “absorbance intensity at 350 nm and 450 nm bands on addition of G4 RNA” value is on record as “decreased”. For the same molecule, the side effects entry was “No side effects” in [6] (intravenous quinacrine, patient); “No side effects” in [7] (oral quinacrine, patient); “No side effects” in [8]. For the same molecule, the clinical outcome in data set [6] (person, intravenous 200 mg every 6 hours for 5 doses, then 100 mg 3 times a day for 6 days, after a week) is “tests negative for COVID-19”; in data set [7] (person, oral 200 mg every 6 hours for 5 doses, then 100 mg 3 times a day for 6 days), “tests negative for COVID-19”. Moreover, the prevention outcome in data set [8] (person) is on record as “without getting sick”. The “mean concentration in whole blood” value in data set [9] was 470 ng/mL. Besides, in data set [9], the mean lung concentration is 2600 ng/mL.
